Test results reported in patent publication US10537563B2, “Methods for treating ocular disease using inhibitors of CSF-1R” (NOVARTIS AG, priority 2016, dated 2020).

Legend:
TRKC = TRKC (Homo sapiens, UniProt Q16288); test: In vitro kinase assay (Table 1); assay type: biochemical
BaF-Tel-FGFR3 = biological target: T1, BaF-Tel-FGFR3 (Homo sapiens, UniProt P22607); test: BaF3 proliferation assay; assay type: cell-based, murine
T1 construct: fused on or other part: P41212 (Transcription factor ETV6)
T1 sequence (P22607 472-761 limits assumed, change not shown): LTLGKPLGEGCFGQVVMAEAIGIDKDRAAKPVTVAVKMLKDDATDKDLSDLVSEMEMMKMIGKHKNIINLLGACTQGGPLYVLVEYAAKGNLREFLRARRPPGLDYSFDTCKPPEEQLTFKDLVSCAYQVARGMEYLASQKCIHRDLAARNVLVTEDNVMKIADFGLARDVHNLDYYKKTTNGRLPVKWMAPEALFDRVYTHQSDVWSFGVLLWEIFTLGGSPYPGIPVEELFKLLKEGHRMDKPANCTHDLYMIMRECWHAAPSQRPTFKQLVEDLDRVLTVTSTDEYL

BaF-Tpr-MET = biological target: T2, BaF-Tpr-MET (Homo sapiens, UniProt P08581); test: BaF3 proliferation assay; assay type: cell-based, murine
T2 construct: expressed in transfected cells; host or cells: BaF3 (murine pro-B cell line); the other entry of the earlier key: TPR (P12270, Nucleoprotein TPR)

BAF/Tel-MER-3.2 = biological target: T3, BAF/Tel-MER-3.2 (Homo sapiens, UniProt Q12866); test: BaF3 proliferation assay; assay type: cell-based, murine
T3 construct: fused on or other part: P41212 (Transcription factor ETV6)

MMP-9 = MMP-9 production by human monocytes (ELISA); assay type: cell-based; settings: Monocyte
Experimental: (§1) Freshly isolated human PBMCs were used to purify human monocytes by negative selection using an indirect magnetic labeling system. […] Soluble factors such as cytokines (VEGFa, IL-6 etc.) and chemokines (IL-8, MCP-1, MMP9 etc.) in the culture supernatant were measured using commercial ELISA kits. The in vitro survival of human macrophages was measured using a commercially available CellTiter-Glo® system. Most observed results were repeated in multiple donors (n>5).

VEGFa = VEGFa production by human macrophages; assay type: cell-based; settings: stimulation with MCSF or IL-34
Experimental: as §1
Activated human macrophages are a source of VEGFa. Human macrophages produce VEGFa following stimulation with MCSF or IL-34.

BaF3-Tel-JAK2; clone1 = biological target: T4, BaF3-Tel-JAK2; clone1 (Homo sapiens, UniProt O60674); test: BaF3 proliferation assay; assay type: cell-based, murine
T4 construct: fused on or other part: P41212 (Transcription factor ETV6)
T4 sequence (O60674 849-1132 limits assumed, change not shown): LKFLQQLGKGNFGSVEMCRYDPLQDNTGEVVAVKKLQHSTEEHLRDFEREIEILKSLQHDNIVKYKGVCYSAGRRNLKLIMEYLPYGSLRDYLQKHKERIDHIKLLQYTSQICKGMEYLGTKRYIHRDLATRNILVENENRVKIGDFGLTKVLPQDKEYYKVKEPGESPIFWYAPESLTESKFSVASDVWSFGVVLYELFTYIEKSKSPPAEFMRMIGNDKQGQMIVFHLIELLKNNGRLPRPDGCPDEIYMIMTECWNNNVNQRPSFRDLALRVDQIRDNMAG

BaF-Tel-IGF1R = biological target: T5, BaF-Tel-IGF1R (Homo sapiens, UniProt P08069); test: BaF3 proliferation assay; assay type: cell-based, murine
T5 construct: fused on or other part: P41212 (Transcription factor ETV6)

BAF/Tel-Lck-2.1/sACP = biological target: T6, BAF/Tel-Lck-2.1/sACP (Homo sapiens, UniProt P06239); test: BaF3 proliferation assay; assay type: cell-based, murine
T6 construct: fused on or other part: P41212 (Transcription factor ETV6)

Nek2 = Nek2 (Homo sapiens, UniProt P51955); test: In vitro kinase assay (Table 1); assay type: biochemical
BaF-PTC3-RET = BaF-PTC3-RET (Homo sapiens, UniProt P07949); test: BaF3 proliferation assay; assay type: cell-based, murine
BAF/Tel-AlK-Q1/sACP = biological target: T7, BAF/Tel-AlK-Q1/sACP (Homo sapiens, UniProt Q9UM73); test: BaF3 proliferation assay; assay type: cell-based, murine
T7 construct: fused on or other part: P41212 (Transcription factor ETV6)

BAF/Tel-Src-3.1/sACP = biological target: T8, BAF/Tel-Src-3.1/sACP (Homo sapiens, UniProt P12931); test: BaF3 proliferation assay; assay type: cell-based, murine
T8 construct: fused on or other part: P41212 (Transcription factor ETV6)

BAF/Tel-BMX-1.2/sACP = biological target: T9, BAF/Tel-BMX-1.2/sACP (Homo sapiens, UniProt P51813); test: BaF3 proliferation assay; assay type: cell-based, murine
T9 construct: fused on or other part: P41212 (Transcription factor ETV6)
T9 sequence (P51813 417-675 limits assumed, change not shown): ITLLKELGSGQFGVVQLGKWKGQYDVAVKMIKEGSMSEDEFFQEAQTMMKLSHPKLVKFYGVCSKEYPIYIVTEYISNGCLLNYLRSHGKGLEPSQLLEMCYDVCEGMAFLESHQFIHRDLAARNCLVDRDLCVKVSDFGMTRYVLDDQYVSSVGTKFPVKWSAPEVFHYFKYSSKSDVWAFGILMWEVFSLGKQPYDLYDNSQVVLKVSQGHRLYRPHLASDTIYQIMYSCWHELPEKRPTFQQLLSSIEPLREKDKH

PAK2 = PAK2 (Homo sapiens, UniProt Q13177); test: In vitro kinase assay (Table 1); assay type: biochemical
PAK2, sequence (Q13177 whole entry, species assumed): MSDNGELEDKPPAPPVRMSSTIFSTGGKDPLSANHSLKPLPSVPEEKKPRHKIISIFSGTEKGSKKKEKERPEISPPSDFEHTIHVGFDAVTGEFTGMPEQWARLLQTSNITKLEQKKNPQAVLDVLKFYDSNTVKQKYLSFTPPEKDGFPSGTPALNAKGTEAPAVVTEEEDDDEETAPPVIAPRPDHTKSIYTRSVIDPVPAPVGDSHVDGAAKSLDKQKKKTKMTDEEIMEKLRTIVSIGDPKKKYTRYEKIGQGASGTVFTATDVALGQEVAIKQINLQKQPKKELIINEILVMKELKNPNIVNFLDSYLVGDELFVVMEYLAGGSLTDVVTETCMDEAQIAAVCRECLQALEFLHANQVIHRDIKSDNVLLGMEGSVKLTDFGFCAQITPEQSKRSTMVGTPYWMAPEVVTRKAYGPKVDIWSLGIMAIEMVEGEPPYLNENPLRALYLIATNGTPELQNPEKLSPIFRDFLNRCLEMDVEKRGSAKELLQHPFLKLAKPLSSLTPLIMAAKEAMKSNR

Pim1 = Pim1 (Homo sapiens, UniProt P11309); test: In vitro kinase assay (Table 1); assay type: biochemical
Pim1, sequence (P11309 whole entry, species assumed): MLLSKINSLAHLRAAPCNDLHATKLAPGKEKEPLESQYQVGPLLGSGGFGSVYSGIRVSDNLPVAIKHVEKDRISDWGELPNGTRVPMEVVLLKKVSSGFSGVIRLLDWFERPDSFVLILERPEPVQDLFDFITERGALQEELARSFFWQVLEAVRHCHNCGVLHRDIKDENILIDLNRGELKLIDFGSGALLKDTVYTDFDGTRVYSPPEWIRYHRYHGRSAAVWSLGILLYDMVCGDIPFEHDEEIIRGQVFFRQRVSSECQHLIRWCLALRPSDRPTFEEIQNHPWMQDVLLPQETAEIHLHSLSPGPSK

BAF/Tel-TRKC-Q2/sACP = biological target: T10, BAF/Tel-TRKC-Q2/sACP (Homo sapiens, UniProt Q16288); test: BaF3 proliferation assay; assay type: cell-based, murine
T10 construct: fused on or other part: P41212 (Transcription factor ETV6)
T10 sequence (Q16288 whole entry, change not shown, the tested form may be a part): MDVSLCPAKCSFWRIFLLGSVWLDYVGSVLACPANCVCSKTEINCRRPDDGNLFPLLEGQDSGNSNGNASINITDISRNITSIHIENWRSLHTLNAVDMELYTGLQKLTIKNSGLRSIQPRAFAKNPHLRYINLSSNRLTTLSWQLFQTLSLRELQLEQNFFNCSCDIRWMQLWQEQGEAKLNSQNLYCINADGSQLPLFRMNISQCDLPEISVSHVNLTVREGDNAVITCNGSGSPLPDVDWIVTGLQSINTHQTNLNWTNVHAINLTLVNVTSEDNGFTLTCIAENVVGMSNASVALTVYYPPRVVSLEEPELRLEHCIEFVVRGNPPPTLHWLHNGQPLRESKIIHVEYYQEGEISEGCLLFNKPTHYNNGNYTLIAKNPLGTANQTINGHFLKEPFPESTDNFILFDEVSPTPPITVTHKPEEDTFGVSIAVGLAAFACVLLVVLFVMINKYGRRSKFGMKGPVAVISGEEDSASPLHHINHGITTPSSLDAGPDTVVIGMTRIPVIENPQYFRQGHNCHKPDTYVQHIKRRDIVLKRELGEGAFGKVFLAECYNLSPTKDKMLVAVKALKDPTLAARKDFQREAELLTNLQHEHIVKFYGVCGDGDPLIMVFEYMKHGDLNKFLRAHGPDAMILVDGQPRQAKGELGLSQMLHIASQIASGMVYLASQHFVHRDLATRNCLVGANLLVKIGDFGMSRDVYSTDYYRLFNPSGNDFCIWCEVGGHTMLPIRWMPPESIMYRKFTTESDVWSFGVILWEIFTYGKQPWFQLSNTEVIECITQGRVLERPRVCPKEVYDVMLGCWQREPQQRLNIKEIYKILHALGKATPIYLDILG

PHKG2 = PHKG2 (Homo sapiens, UniProt P15735); test: In vitro kinase assay (Table 1); assay type: biochemical
PIK3Cbeta = PIK3Cbeta (Homo sapiens, UniProt P42338); test: In vitro kinase assay (Table 1); assay type: biochemical
COT = COT (Homo sapiens, UniProt P41279); test: In vitro kinase assay (Table 1); assay type: biochemical
Met (h) = biological target: T11, Met (h) (Homo sapiens, UniProt P08581); test: Kinase profiling at Invitrogen; assay type: biochemical
T11 construct: purchased Invitrogen
T11 sequence (P08581 25-1390): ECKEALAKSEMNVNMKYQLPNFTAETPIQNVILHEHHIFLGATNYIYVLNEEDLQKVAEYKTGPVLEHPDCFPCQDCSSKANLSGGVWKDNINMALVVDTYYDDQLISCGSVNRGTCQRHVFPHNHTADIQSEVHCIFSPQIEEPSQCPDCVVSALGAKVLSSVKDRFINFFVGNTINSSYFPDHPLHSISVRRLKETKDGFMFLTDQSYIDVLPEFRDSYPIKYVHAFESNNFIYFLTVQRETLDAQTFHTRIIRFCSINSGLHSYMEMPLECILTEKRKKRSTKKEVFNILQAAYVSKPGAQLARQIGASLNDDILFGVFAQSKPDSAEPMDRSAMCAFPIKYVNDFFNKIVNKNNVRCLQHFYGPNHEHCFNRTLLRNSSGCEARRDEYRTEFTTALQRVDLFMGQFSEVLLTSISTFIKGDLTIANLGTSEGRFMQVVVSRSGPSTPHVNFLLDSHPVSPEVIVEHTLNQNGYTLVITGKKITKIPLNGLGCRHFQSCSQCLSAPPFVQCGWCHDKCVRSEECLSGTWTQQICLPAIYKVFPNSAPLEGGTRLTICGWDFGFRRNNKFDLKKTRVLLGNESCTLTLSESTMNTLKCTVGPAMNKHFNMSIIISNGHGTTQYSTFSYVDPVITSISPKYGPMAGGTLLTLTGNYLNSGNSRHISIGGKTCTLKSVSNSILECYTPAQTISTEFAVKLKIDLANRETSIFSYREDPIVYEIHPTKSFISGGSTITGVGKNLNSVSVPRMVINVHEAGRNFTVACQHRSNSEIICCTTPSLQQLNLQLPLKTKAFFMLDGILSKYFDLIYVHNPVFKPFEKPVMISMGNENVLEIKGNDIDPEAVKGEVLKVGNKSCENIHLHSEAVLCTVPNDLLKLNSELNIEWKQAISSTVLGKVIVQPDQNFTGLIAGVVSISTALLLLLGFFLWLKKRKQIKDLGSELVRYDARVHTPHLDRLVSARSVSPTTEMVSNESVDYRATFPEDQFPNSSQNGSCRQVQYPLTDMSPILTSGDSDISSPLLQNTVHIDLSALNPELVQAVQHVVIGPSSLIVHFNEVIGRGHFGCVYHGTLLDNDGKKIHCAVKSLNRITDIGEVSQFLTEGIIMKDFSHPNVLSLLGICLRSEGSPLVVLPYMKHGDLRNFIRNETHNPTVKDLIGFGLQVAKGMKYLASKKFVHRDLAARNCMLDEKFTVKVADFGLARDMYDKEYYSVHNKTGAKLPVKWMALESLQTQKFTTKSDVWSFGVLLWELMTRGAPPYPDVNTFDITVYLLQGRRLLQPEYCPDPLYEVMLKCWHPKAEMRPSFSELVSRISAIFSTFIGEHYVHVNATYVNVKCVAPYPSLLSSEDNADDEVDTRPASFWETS

Abl = Abl (Homo sapiens, UniProt P00519); test: In vitro kinase assay (Table 1); assay type: biochemical
PIK4Cbeta = PIK4Cbeta (Homo sapiens, UniProt Q9UBF8); test: In vitro kinase assay (Table 1); assay type: biochemical
CDC2_cyclinB = CDC2_cyclinB (Homo sapiens, UniProt P06493); test: In vitro kinase assay (Table 1); assay type: biochemical
BAF/bRaf Pim1-1/sACP = test: BaF3 proliferation assay; assay type: cell-based, murine; settings: Mus musculus
CamKII alpha = CamKII alpha (Homo sapiens, UniProt Q9UQM7); test: In vitro kinase assay (Table 1); assay type: biochemical
ROS = ROS (Homo sapiens, UniProt P08922); test: In vitro kinase assay (Table 1); assay type: biochemical
BAF/Tel-Tie1-Q2/sACP = biological target: T12, BAF/Tel-Tie1-Q2/sACP (Homo sapiens, UniProt P35590); test: BaF3 proliferation assay; assay type: cell-based, murine
T12 construct: fused on or other part: P41212 (Transcription factor ETV6)

BAF/Tel-InsR-Q.4/sACP = biological target: T13, BAF/Tel-InsR-Q.4/sACP (Homo sapiens, UniProt P06213); test: BaF3 proliferation assay; assay type: cell-based, murine
T13 construct: fused on or other part: P41212 (Transcription factor ETV6)
T13 sequence (P06213 1023-1298 limits assumed, stated change not applied): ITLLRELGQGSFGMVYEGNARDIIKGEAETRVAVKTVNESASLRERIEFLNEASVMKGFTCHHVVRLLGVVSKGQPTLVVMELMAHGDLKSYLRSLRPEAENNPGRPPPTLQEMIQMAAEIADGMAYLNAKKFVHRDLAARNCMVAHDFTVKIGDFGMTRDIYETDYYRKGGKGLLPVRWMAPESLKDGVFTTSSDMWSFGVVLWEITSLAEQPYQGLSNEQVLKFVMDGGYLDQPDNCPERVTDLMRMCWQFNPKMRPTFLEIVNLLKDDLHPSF

BAF/Tel-MET-3.1/sACP = biological target: T14, BAF/Tel-MET-3.1/sACP (Homo sapiens, UniProt P08581); test: BaF3 proliferation assay; assay type: cell-based, murine
T14 construct: fused on or other part: P41212 (Transcription factor ETV6)

BaF-Tel-KDR = biological target: T15, BaF-Tel-KDR (Homo sapiens, UniProt P35968); test: BaF3 proliferation assay; assay type: cell-based, murine
T15 construct: fused on or other part: P41212 (Transcription factor ETV6)
T15 sequence (P35968 834-1162 limits assumed, change not shown): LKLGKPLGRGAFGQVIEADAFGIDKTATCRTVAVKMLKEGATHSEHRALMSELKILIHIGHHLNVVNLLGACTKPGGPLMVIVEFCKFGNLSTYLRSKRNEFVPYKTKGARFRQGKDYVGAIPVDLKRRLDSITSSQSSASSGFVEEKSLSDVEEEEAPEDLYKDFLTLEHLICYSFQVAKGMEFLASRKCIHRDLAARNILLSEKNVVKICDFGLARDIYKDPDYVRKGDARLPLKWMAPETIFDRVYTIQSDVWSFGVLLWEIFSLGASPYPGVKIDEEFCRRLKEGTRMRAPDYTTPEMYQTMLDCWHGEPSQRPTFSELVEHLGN

Ck1 delta = Ck1 delta (Homo sapiens, UniProt P48730); test: In vitro kinase assay (Table 1); assay type: biochemical
Ck1 delta, sequence (P48730 whole entry): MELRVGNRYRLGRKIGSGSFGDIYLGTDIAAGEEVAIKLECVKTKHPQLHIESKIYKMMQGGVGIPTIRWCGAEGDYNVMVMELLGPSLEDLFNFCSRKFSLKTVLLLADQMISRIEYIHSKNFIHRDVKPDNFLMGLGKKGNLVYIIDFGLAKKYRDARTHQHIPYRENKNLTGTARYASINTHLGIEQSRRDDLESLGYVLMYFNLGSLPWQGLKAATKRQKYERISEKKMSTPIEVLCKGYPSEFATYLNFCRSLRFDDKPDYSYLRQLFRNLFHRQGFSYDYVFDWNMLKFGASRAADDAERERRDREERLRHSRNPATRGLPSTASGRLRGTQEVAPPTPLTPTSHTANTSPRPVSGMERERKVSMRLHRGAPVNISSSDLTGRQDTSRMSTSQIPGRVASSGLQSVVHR

Plk1 = Plk1 (Homo sapiens, UniProt P53350); test: In vitro kinase assay (Table 1); assay type: biochemical
TSSK1 = TSSK1 (Homo sapiens, UniProt Q9BXA7); test: In vitro kinase assay (Table 1); assay type: biochemical
BAF/Tel-EphA3-4.2/sACP = biological target: T16, BAF/Tel-EphA3-4.2/sACP (Homo sapiens, UniProt P29320); test: BaF3 proliferation assay; assay type: cell-based, murine
T16 construct: fused on or other part: P41212 (Transcription factor ETV6)

## CNC(=O)c1cc(Oc2ccc3nc(NC4CCCCC4O)sc3c2)ccn1 (stereo not shown) [Compound (I)]
TRKC
  IC50: > 10 µM
BaF-Tel-FGFR3
  EC50: > 10 µM
BaF-Tpr-MET
  EC50: > 10 µM
BAF/Tel-MER-3.2
  EC50: > 10 µM
MMP-9
  inhibition at 0.05 µM: 30 to 50%
VEGFa
  VEGFa levels of human macrophages: significantly decreased
BaF3-Tel-JAK2; clone1
  EC50: > 10 µM
BaF-Tel-IGF1R
  EC50: > 10 µM
BAF/Tel-Lck-2.1/sACP
  EC50: > 10 µM
Nek2
  IC50: > 10 µM
BaF-PTC3-RET
  EC50: > 10 µM
BAF/Tel-AlK-Q1/sACP
  EC50: > 10 µM
BAF/Tel-Src-3.1/sACP
  EC50: > 10 µM
BAF/Tel-BMX-1.2/sACP
  EC50: > 10 µM
PAK2
  IC50: > 25 µM
Pim1
  IC50: > 25 µM
BAF/Tel-TRKC-Q2/sACP
  EC50: > 10 µM
PHKG2
  IC50: > 10 µM
PIK3Cbeta
  IC50: > 25 µM
COT
  IC50: > 25 µM
Met (h); read-out: % inhibition @ 0.5 μM, Met (h)
  inhibition at 0.5 µM: 0%
Met (h); read-out: % inhibition @ 5 μM, Met (h)
  inhibition at 5 µM: 4%
Met (h); read-out: % inhibition @ 20 μM, Met (h)
  inhibition at 20 µM: 37%
Abl
  IC50: > 10 µM
PIK4Cbeta
  IC50: > 25 µM
CDC2_cyclinB
  IC50: > 25 µM
BAF/bRaf Pim1-1/sACP
  EC50: > 10 µM
CamKII alpha
  IC50: > 10 µM
ROS
  IC50: > 10 µM
BAF/Tel-Tie1-Q2/sACP
  EC50: > 10 µM
BAF/Tel-InsR-Q.4/sACP
  EC50: > 10 µM
BAF/Tel-MET-3.1/sACP
  EC50: > 10 µM
BaF-Tel-KDR
  EC50: > 10 µM
Ck1 delta
  IC50: > 10 µM
Plk1
  IC50: > 25 µM
TSSK1
  IC50: > 10 µM
BAF/Tel-EphA3-4.2/sACP
  EC50: > 10 µM
